Laboratory results from patent US5409933A, “Quinoline derivatives and processes for preparing the same” (priority 1993, dated 1995).
Counter-ions that a name gives are not always drawn. Like-named read-outs stand apart in the source and are kept apart here.

Key:
Experiment in all cases: In Vitro Anti-Bacterial Activity Test (MIC, agar dilution)
Assay type in all cases: cell-based
[1] = tested on: Enterobacter cloacae 1321E
Procedure: (§1) The above in vitro antibacterial activity test was carried out in accordance with the agar culture medium dilution method (Hoechst 345) by using Muller-Hinton agar medium to determine the minimum inhibitory concentration (MIC).
(§2) The strains having 10^7 C.F.U./ml were inoculated on the culture medium, and the growth of the strains was observed after incubating them at 37° C. for 18 hours, in which ciprofloxacin was used as a control antibacterial agent. In this test, twenty typical strains were used.

[2] = tested on: Enterobacter cloacae P99
Procedure: as §1, §2

[3] = tested on: Escherichia coli 078
Procedure: as §1, §2

[4] = tested on: Escherichia coli 1507E; settings: Muller-Hinton agar, 37° C.
Procedure: as §1, §2

[5] = tested on: Escherichia coli DC0; settings: Muller-Hinton agar, 37° C., 18 hours
Procedure: as §1, §2

[6] = tested on: Escherichia coli DC2
Procedure: as §1, §2

[7] = tested on: Escherichia coli TEM; settings: Muller-Hinton agar, 37° C.
Procedure: as §1, §2

[8] = tested on: Klebsiella aerogenes 1522E; settings: Klebsiella aerogenes 1522E, Muller-Hinton agar, 37° C., 18 hours
Procedure: as §1, §2

[9] = tested on: Klebsiella oxytoca 1082E; settings: Klebsiella oxytoca 1082E, Muller-Hinton agar, 37° C., 18 hours
Procedure: as §1, §2

[10] = tested on: Pseudomonas aeruginosa 1592E; settings: Muller-Hinton agar, 37° C., 18 hours
Procedure: as §1, §2

[11] = tested on: Pseudomonas aeruginosa 1771M; settings: Muller-Hinton agar, 37° C.
Procedure: as §1, §2

[12] = tested on: Pseudomonas aeruginosa 1771; settings: Pseudomonas aeruginosa 1771, Muller-Hinton agar, 37° C., 18 hours
Procedure: as §1, §2

[13] = tested on: Pseudomonas aeruginosa 9027; settings: Muller-Hinton agar, 37° C., 18 hours
Procedure: as §1, §2

[14] = tested on: Salmonella typhimurium; settings: Salmonella typhimurium, Muller-Hinton agar, 37° C., 18 hours
Procedure: as §1, §2

[15] = tested on: Staphylococcus aureus 285; settings: Staphylococcus aureus 285, Muller-Hinton agar, 37° C., 18 hours
Procedure: as §1, §2

[16] = tested on: Staphylococcus aureus 503; settings: Staphylococcus aureus 503, Muller-Hinton agar, 37° C., 18 hours
Procedure: as §1, §2

[17] = tested on: Staphylococcus aureus SG511; settings: Staphylococcus aureus SG511, Muller-Hinton agar, 37° C., 18 hours
Procedure: as §1, §2

[18] = tested on: Streptococcus faecium MD8b; settings: Muller-Hinton agar, 37° C., 18 hours
Procedure: as §1, §2

[19] = tested on: Streptococcus pyogenes 308A; settings: Muller-Hinton agar, 37° C., 18 hours
Procedure: as §1, §2

[20] = tested on: Streptococcus pyogenes 77A
Procedure: as §1, §2

[21] = Enterobacter cloacae 1321E, Muller-Hinton agar, 37° C., 18 hours, read-out: MIC
[22] = Enterobacter cloacae, P99, 18 h
[23] = Escherichia coli 078, Muller-Hinton agar, 37° C., 18 hours, read-out: MIC
[24] = Klebsiella aerogenes, 1522E, 18 h, read-out: MIC
[25] = Pseudomonas aeruginosa, 1771M, 18 h
[26] = Salmonella enterica, read-out: MIC
[27] = Enterococcus faecium, read-out: MIC
[28] = Streptococcus pyogenes, 77A, 18 h
[29] = Staphylococcus aureus, 285, 18 h, read-out: MIC
[30] = Streptococcus pyogenes 77A, Muller-Hinton agar, 37° C., 18 hours, read-out: MIC

Row | Compound | MIC [1, 21] [µg/mL] | MIC [2, 22] [µg/mL] | MIC ([4]; Escherichia coli, 1507E, 18 h) [µg/mL] | MIC ([5]; read-out: MIC) [µg/mL] | MIC ([6]; Escherichia coli, DC2, 18 h) [µg/mL] | MIC ([7]; Escherichia coli, 18 h) [µg/mL] | MIC [8, 24] [µg/mL] | MIC ([9]; read-out: MIC) [µg/mL] | MIC ([10]; read-out: MIC) [µg/mL] | MIC [11, 25] [µg/mL] | MIC ([12]; read-out: MIC) [µg/mL] | MIC ([13]; read-out: MIC) [µg/mL] | MIC [14, 26] [µg/mL] | MIC ([16]; read-out: MIC) [µg/mL] | MIC ([17]; read-out: MIC) [µg/mL] | MIC [18, 27] [µg/mL] | MIC ([19]; read-out: MIC) [µg/mL] | MIC [20, 28] [µg/mL] | MIC [15, 29] [µg/mL] | MIC ([3]; Escherichia coli, 078, 18 h) [µg/mL] | other results
1 | 1-cyclopropyl-6-fluoro-8-chloro-7-(7-amino-5-azaspiro[2.4]hept-5-yl)-3-(2- nitroacetyl)-1,4-dihydro-4-oxoquinoline hydrochloride [Example 35] |  |  |  |  |  |  |  |  |  |  |  |  |  |  |  |  |  |  |  |  | MIC ([1]; Enterobacter cloacae 1321E, Muller-Hinton agar, 37° C., 18 hours): 0.025 µg/mL; MIC ([2]; Enterobacter cloacae P99, Muller-Hinton agar, 37° C., 18 hours): 0.025 µg/mL; MIC ([3]; Escherichia coli 078, Muller-Hinton agar, 37° C., 18 hours): 0.007 µg/mL; MIC ([4]; 18 hours): 0.007 µg/mL; MIC [5]: 0.098 µg/mL; MIC ([6]; Escherichia coli DC2, Muller-Hinton agar, 37° C., 18 hours): 0.049 µg/mL; MIC ([7]; 18 hours): 0.013 µg/mL; MIC [8]: 0.013 µg/mL; MIC [9]: < 0.002 µg/mL; MIC [10]: 0.781 µg/mL; MIC ([11]; 18 hours): 0.098 µg/mL; MIC [12]: 0.391 µg/mL; MIC [13]: 0.781 µg/mL; MIC [14]: 0.013 µg/mL; MIC [15]: 0.025 µg/mL; MIC [16]: 0.013 µg/mL; MIC [17]: 0.025 µg/mL; MIC [18]: 0.098 µg/mL; MIC [19]: 0.195 µg/mL; MIC ([20]; Streptococcus pyogenes 77A, Muller-Hinton agar, 37° C., 18 hours): 0.098 µg/mL
2 | O=C(C[N+](=O)[O-])c1cn(C2CC2)c2cc(N3CCNCC3)c(F)cc2c1=O [Example 4, 1-cyclopropyl-6-fluoro-7-(piperazin-1-yl)-3-(2-nitroacetyl)-1,4-dihydro-4-oxoquinoline hydrochloride] | < 0.002 | 0.007 | 0.007 | 0.195 | 0.391 | 0.013 | 0.013 | < 0.002 | 0.195 | 0.098 | 0.195 | 0.195 | 0.007 | 0.781 | 0.195 | 0.781 | 3.12 | 0.781 |  |  | MIC [3, 23]: < 0.002 µg/mL; MIC ([15]; hydrochloride): 0.391 µg/mL
3 | O=C(C[N+](=O)[O-])c1cn(C2CC2)c2cc(N3CCNCC3)c(F)cc2c1=O [Example 5, 1-cyclopropyl-6-fluoro-7-(piperazin-1-yl)-3-(2-nitroacetyl)-1,4-dihydro-4-oxoquinoline trifluoroacetate] |  |  |  |  |  |  |  |  |  |  |  |  |  |  |  |  |  |  |  |  | MIC ([4]; 18 hours, read-out: MIC): 0.013 µg/mL; MIC ([7]; 18 hours, trifluoroacetate): 0.007 µg/mL; MIC ([8]; trifluoroacetate): 0.025 µg/mL; MIC ([11]; 18 hours, trifluoroacetate): 0.049 µg/mL; MIC ([15]; trifluoroacetate): 0.195 µg/mL
4 | O=C(C[N+](=O)[O-])c1cn(C2CC2)c2c(F)c(N3CCNCC3)c(F)cc2c1=O [Example 6, 1-cyclopropyl-6,8-difluoro-7-(piperazin-1-yl)-3-(2-nitroacetyl)-1,4-dihydro-4-oxoquinoline hydrochloride] | < 0.002 | < 0.002 |  | 0.195 | 0.098 | < 0.002 | 0.007 | < 0.002 | 0.195 | 0.049 | 0.195 | 0.391 | < 0.002 | 0.391 | 0.098 | 0.781 | 3.12 | 0.781 | 0.195 |  | MIC [3, 23]: < 0.002 µg/mL; MIC ([4]; 18 hours, read-out: MIC): < 0.002 µg/mL
5 | CC1CN(c2c(F)cc3c(=O)c(C(=O)C[N+](=O)[O-])cn(C4CC4)c3c2F)CCN1 (centres unmarked) [Example 7, 1-cyclopropyl-6,8-difluoro-7-(3-methylpiperazin-1-yl)-3-(2-nitroacetyl)-1,4-dihydro-4-oxoquinoline hydrochloride] | 0.013 | 0.391 | 0.025 | 0.391 | 0.391 | 0.195 | 0.391 | < 0.002 | 0.781 | 0.391 | 1.56 | 0.781 | 0.098 | 0.391 | 0.391 | 0.781 | 1.56 | 0.781 | 0.391 | 0.049 | 
6 | NC1CCN(c2nc3c(cc2F)c(=O)c(C(=O)C[N+](=O)[O-])cn3-c2ccc(F)cc2F)C1 (centres unmarked) [Example 8, 1-(2,4-difluorophenyl)-6-fluoro-7-(3-aminopyrrolidin-1-yl)-3-(2-nitroacetyl)-1,4-dihydro-4-oxo-1,8-naphthyridinehydrochloride] | < 0.002 | < 0.002 | 0.007 | 0.195 | 0.013 | < 0.002 | 0.007 | < 0.002 | 0.195 | 0.049 | 0.391 | 0.391 | 0.007 | 0.025 | 0.049 | 0.391 | 0.781 |  | 0.025 | 0.007 | MIC [20, 30]: 0.195 µg/mL
7 | NC1CCN(c2cc3c(cc2F)c(=O)c(C(=O)C[N+](=O)[O-])cn3-c2ccc(F)cc2F)C1 (centres unmarked) [Example 9, 1-(2,4-difluorophenyl)-6-fluoro-7-(3-aminopyrrolidin-1-yl)-3-(2-nitroacetyl)-1,4-dihydro-4-oxoquinoline hydrochloride] |  | < 0.002 | 0.013 | 0.195 | 0.025 | < 0.002 | 0.004 | < 0.002 | 0.098 | 0.049 | 0.195 | 0.391 | 0.007 | 0.013 | 0.025 | 0.195 | 0.195 |  | 0.025 | 0.007 | MIC ([1]; Enterobacter cloacae, 1321E, 18 h): 0.007 µg/mL; MIC [20, 30]: 0.195 µg/mL
8 | CC1CN(c2cc3c(cc2F)c(=O)c(C(=O)C[N+](=O)[O-])cn3-c2ccc(F)cc2F)CCN1 (centres unmarked) [Example 10, 1-(2,4-difluorophenyl)-6-fluoro-7-(3-methylpiperazin-1-yl)-3-(2-nitroacetyl)-1,4-dihydro-4-oxoquinoline hydrochloride] | 0.049 | 0.049 | 0.098 | 1.56 | 0.391 | 0.098 | 1.56 | 0.025 | 1.56 | 1.56 | 3.12 | 3.12 | 0.049 | 0.391 | 0.391 | 1.56 | 1.56 | 0.781 | 0.391 | 0.049 | 
9 | CCOC(=O)C(C(=O)OCC)C(=O)c1cn(C2CC2)c2c(OC)c(N3CC[C@H](NC)C3)c(F)cc2c1=O [Example 59, 1-cyclopropyl-6-fluoro-8-methoxy-7-(3-3S-methylaminopyrrolidin-1-yl)-3-(2,2-diethoxycarbonylacetyl)-1,4-dihydro-4-oxoquinoline hydrochloride] | 0.049 | 0.049 | 0.391 | 0.781 | 0.098 | 0.049 | 0.098 | 0.007 |  | 0.781 | 1.56 | 1.56 | 0.049 | 0.098 | 0.098 | 0.781 | 0.781 | 0.781 | 0.098 | 0.049 | 
